Assay results reported in patent US6996429B2, “Apparatus and method for detecting flinch response to nociceptive agents” (Regents of the Univeristy of California, San Diego, priority 2001, dated 2006).
Entries after “also recorded” stand apart in the source; their conditions may differ. Where two headings read alike, the source gives them in different places.

Experiments:
rat hind paw = conditions: for Cumulative flinching behavior (Mean ± SD) Phase I / Cumulative flinching behavior (Mean ± SD) Phase II / Cumulative flinching behavior (Mean ± SD) Phase IIA / Cumulative flinching behavior (Mean ± SD) Phase IIB: N 12
[1] = tested on: formalin induced flinching in the rat; assay: Effects of systemic and spinal drugs on formalin evoked flinching behavior (automated formalin test); format: in vivo
Procedure: To examine the effects of a drug on flinching behavior, rats received intraperitoneal or intrathecal injections of the drug. Intraperitoneal injections were delivered in volumes of 0.5 ml/kg.
Solutions were prepared fresh daily.
The percent inhibition is computed by dividing the response of each animal in a given group by the respective vehicle control group and multiplying by 100.
5. Test for intrathecal and intraperitoneal drugs on flinch behavior. […] Dose response curves of each agent were generated to relate drug effect to paw flinch and for comparison with previously reported data.

[2] = Formalin, 0.5% vs. Formalin, 2.5%
[3] = No Injection vs. Formalin, 2.5%

Structure (SMILES): C=O [Formalin]
- flinching behavior versus formalin concentration (rat hind paw; 0.5%/50 μL to 5.0%/50 μL, all phases, compared to saline, 1-way ANOVA p<0.002): concentration-related increase in flinching behavior
- peak flinch rate Phase I (rat hind paw; 100 male Sprague Dawly rats, Phase I): ~50 flinches/min
- peak flinch rate Phase II (rat hind paw; 100 male Sprague Dawly rats, Phase II): ~37 flinches/min
- mean cumulative flinches (±SEM) Phase I (rat hind paw; 100 male rats, Phase I (0–9 min)): 203±9
- mean cumulative flinches (±SEM) Phase II (rat hind paw; 100 male rats, Phase II): 1058±39
- mean cumulative flinches (±SEM) Phase IIA (rat hind paw; 100 male rats, Phase IIA (10–40 min)): 792±27
- mean cumulative flinches (±SEM) Phase IIB (rat hind paw; 100 male rats, Phase IIB (41–60 min)): 266±16
- Post hoc group comparison Phase I (rat hind paw; Formalin, 0.5% vs. Formalin, 2.5%, Phase I): S (S = Significant difference between groups, p < 0.05, Tukey/Kramer post hoc test.)
- Post hoc group comparison Phase II (rat hind paw; Formalin, 0.5% vs. Formalin, 2.5%, Phase II): S (S = Significant difference between groups, p < 0.05, Tukey/Kramer post hoc test.)
- Post hoc group comparison Phase IIA (rat hind paw; [2]): S (S = Significant difference between groups, p < 0.05, Tukey/Kramer post hoc test.)
- Post hoc group comparison Phase IIB (rat hind paw; [2]): S (S = Significant difference between groups, p < 0.05, Tukey/Kramer post hoc test.)
- Post hoc group comparison Phase I (rat hind paw; Formalin, 0.5% vs. Formalin, 5.0%, Phase I): S (S = Significant difference between groups, p < 0.05, Tukey/Kramer post hoc test.)
- Post hoc group comparison Phase II (rat hind paw; Formalin, 0.5% vs. Formalin, 5.0%, Phase II): S (S = Significant difference between groups, p < 0.05, Tukey/Kramer post hoc test.)
- Post hoc group comparison Phase IIA (rat hind paw; Formalin, 0.5% vs. Formalin, 5.0%): S (S = Significant difference between groups, p < 0.05, Tukey/Kramer post hoc test.)
- Cumulative flinching behavior (Mean ± SD) Phase I (rat hind paw; Formalin, 0.5%, Phase I): 127 ± 66
- Cumulative flinching behavior (Mean ± SD) Phase II (rat hind paw; Formalin, 0.5%, Phase II): 400 ± 185
- Cumulative flinching behavior (Mean ± SD) Phase IIA (rat hind paw; Formalin, 0.5%): 301 ± 169
- Cumulative flinching behavior (Mean ± SD) Phase IIB (rat hind paw; Formalin, 0.5%): 100 ± 79
- Post hoc group comparison Phase II (rat hind paw; Formalin, 1.0% vs. Formalin, 2.5%, Phase II): S (S = Significant difference between groups, p < 0.05, Tukey/Kramer post hoc test.)
- Cumulative flinching behavior (Mean ± SD) Phase I (rat hind paw; Formalin, 1.0%, Phase I): 171 ± 55
- Cumulative flinching behavior (Mean ± SD) Phase II (rat hind paw; Formalin, 1.0%, Phase II): 613 ± 265
- Cumulative flinching behavior (Mean ± SD) Phase IIA (rat hind paw; Formalin, 1.0%): 495 ± 211
- Cumulative flinching behavior (Mean ± SD) Phase IIB (rat hind paw; Formalin, 1.0%): 118 ± 100
- Cumulative flinching behavior (Mean ± SD) Phase I (rat hind paw; Formalin, 2.5%, Phase I): 214 ± 75
- Cumulative flinching behavior (Mean ± SD) Phase II (rat hind paw; Formalin, 2.5%, Phase II): 898 ± 266
- Cumulative flinching behavior (Mean ± SD) Phase IIA (rat hind paw; Formalin, 2.5%): 662 ± 210
- Cumulative flinching behavior (Mean ± SD) Phase IIB (rat hind paw; Formalin, 2.5%): 236 ± 148
- Cumulative flinching behavior (Mean ± SD) Phase I (rat hind paw; Formalin, 5.0%, Phase I): 230 ± 84
- Cumulative flinching behavior (Mean ± SD) Phase II (rat hind paw; Formalin, 5.0%, Phase II): 811 ± 194
- Cumulative flinching behavior (Mean ± SD) Phase IIA (rat hind paw; Formalin, 5.0%): 659 ± 131
- Cumulative flinching behavior (Mean ± SD) Phase IIB (rat hind paw; Formalin, 5.0%): 152 ± 88
- Post hoc group comparison Phase II (rat hind paw; No Injection vs. Formalin, 1.0%, Phase II): S (S = Significant difference between groups, p < 0.05, Tukey/Kramer post hoc test.)
- Post hoc group comparison Phase IIA (rat hind paw; No Injection vs. Formalin, 1.0%): S (S = Significant difference between groups, p < 0.05, Tukey/Kramer post hoc test.)
- Post hoc group comparison Phase I (rat hind paw; No Injection vs. Formalin, 2.5%, Phase I): S (S = Significant difference between groups, p < 0.05, Tukey/Kramer post hoc test.)
- Post hoc group comparison Phase II (rat hind paw; No Injection vs. Formalin, 2.5%, Phase II): S (S = Significant difference between groups, p < 0.05, Tukey/Kramer post hoc test.)
- Post hoc group comparison Phase IIA (rat hind paw; [3]): S (S = Significant difference between groups, p < 0.05, Tukey/Kramer post hoc test.)
- Post hoc group comparison Phase IIB (rat hind paw; [3]): S (S = Significant difference between groups, p < 0.05, Tukey/Kramer post hoc test.)
- Post hoc group comparison Phase I (rat hind paw; No Injection vs. Formalin, 5.0%, Phase I): S (S = Significant difference between groups, p < 0.05, Tukey/Kramer post hoc test.)
- Post hoc group comparison Phase II (rat hind paw; No Injection vs. Formalin, 5.0%, Phase II): S (S = Significant difference between groups, p < 0.05, Tukey/Kramer post hoc test.)
- Post hoc group comparison Phase IIA (rat hind paw; No Injection vs. Formalin, 5.0%): S (S = Significant difference between groups, p < 0.05, Tukey/Kramer post hoc test.)
- Post hoc group comparison Phase I (rat hind paw; Saline vs. Formalin, 1.0%, Phase I): S (S = Significant difference between groups, p < 0.05, Tukey/Kramer post hoc test.)
- Post hoc group comparison Phase II (rat hind paw; Saline vs. Formalin, 1.0%, Phase II): S (S = Significant difference between groups, p < 0.05, Tukey/Kramer post hoc test.)
- Post hoc group comparison Phase I (rat hind paw; Saline vs. Formalin, 2.5%, Phase I): S (S = Significant difference between groups, p < 0.05, Tukey/Kramer post hoc test.)
- Post hoc group comparison Phase II (rat hind paw; Saline vs. Formalin, 2.5%, Phase II): S (S = Significant difference between groups, p < 0.05, Tukey/Kramer post hoc test.)
- Post hoc group comparison Phase IIA (rat hind paw; Saline vs. Formalin, 2.5%): S (S = Significant difference between groups, p < 0.05, Tukey/Kramer post hoc test.)
- Post hoc group comparison Phase IIB (rat hind paw; Saline vs. Formalin, 2.5%): S (S = Significant difference between groups, p < 0.05, Tukey/Kramer post hoc test.)
- Post hoc group comparison Phase I (rat hind paw; Saline vs. Formalin, 5.0%, Phase I): S (S = Significant difference between groups, p < 0.05, Tukey/Kramer post hoc test.)
- Post hoc group comparison Phase II (rat hind paw; Saline vs. Formalin, 5.0%, Phase II): S (S = Significant difference between groups, p < 0.05, Tukey/Kramer post hoc test.)
- Post hoc group comparison Phase IIA (rat hind paw; Saline vs. Formalin, 5.0%): S (S = Significant difference between groups, p < 0.05, Tukey/Kramer post hoc test.)
- formalin concentration at which the maximum (plateau) of flinching was observed (rat hind paw; range 0.5 to 5%): 2.5%

Structure (SMILES): C[C@]12N[C@H](Cc3ccccc31)c1ccccc12 [MK801]
- ED50 Phase II (Mean and 95% confidence intervals) ([1]; IT (intrathecal), Phase II (10–60 min), from % MPE dose effect curves): 9.5 (87-1.0) μg
- ED50 Phase IIA (Mean and 95% confidence intervals) ([1]; IT (intrathecal), Phase IIA (10–40 min), from % MPE dose effect curves): 7.3 (43-1.2) μg
- effect on the flinching response ([1]; intrathecal injection): potent dose dependent reduction in Phase II but not Phase I
- effect on the flinching response ([1]; systemic (intraperitoneal) injection): potent dose dependent reduction in Phase II but not Phase I
- flinching behavior at the lowest doses ([1]; systemic delivery, lowest doses): apparent increase in flinching behavior at the lowest doses

Structure (SMILES): CN1CC[C@]23c4c5ccc(O)c4O[C@H]2[C@@H](O)C=C[C@H]3[C@H]1C5.O=S(=O)(O)O [Morphine, morphine sulfate]
- effect on the flinching response ([1]; intrathecal injection, sulfate): potent dose dependent reduction of all phases of the flinching response; also recorded: dose-dependent reduction in all phases of the response to formalin
- effect on the flinching response ([1]; systemic (intraperitoneal) injection, sulfate): potent dose dependent reduction of all phases of the flinching response; also recorded: dose-dependent reduction in all phases of the response to formalin
